Five compounds from PubChem BioAssay AID250 (DTP/NCI, 2004) can be followed below.

Where “and” joins values, the source holds several entries; their conditions need not be identical. Equal entries are not always repeated. Inconclusive results and toxic doses are left out.

The assay has as its system BDF1 mice, L1210 leukemia sc, survival T/C. Kind of assay: NCI In Vivo Anticancer Drug Screen. Data for tumor model L1210 Leukemia (subcutaneous) in B6D2F1 (BDF1) mice. The conditions noted are these: endpoint: median survival time, higher = longer survival. The gist of the method:
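Tumors were transplanted into mice, the animals were treated with compound, survival or tumor size was then measured, and treated values were divided by vehicle-control values.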

For the compound `CC[C@](O)(C(=O)O)c1cc2n(c(=O)c1CO)Cc1cc3ccccc3nc1-2`, the T/C reads like this: (dose: 0.5 mg/kg/injection, schedule: Q01DX009 (ip), vehicle: saline) 104 % of control; (dose: 0.5 mg/kg/injection, schedule: Q01DX009 (sc), vehicle: saline) 104 % of control; (dose: 1.0 mg/kg/injection, schedule: Q01DX009 (ip), vehicle: saline) 102 % of control; (dose: 1.0 mg/kg/injection, schedule: Q01DX009 (sc), vehicle: saline) 104 % of control; (dose: 2.0 mg/kg/injection, schedule: Q01DX009 (ip), vehicle: saline) 116 % of control; (dose: 2.0 mg/kg/injection, schedule: Q01DX009 (sc), vehicle: saline) 110 % of control. Besides, the T/C is 115 % of control and 120 % of control (dose: 6.25 mg/kg/injection, schedule: Q02DX005 (sc), vehicle: saline); 115 % of control and 116 % of control (dose: 6.25 mg/kg/injection, schedule: Q04DX003 (sc), vehicle: saline); 122 % of control and 123 % of control (dose: 8.4 mg/kg/injection, schedule: Q04DX003 (sc), vehicle: saline); 156 % of control (dose: 12.5 mg/kg/injection, schedule: Q02DX005 (sc), vehicle: saline); 115 % of control and 122 % of control (dose: 14.0 mg/kg/injection, schedule: Q07DX003 (sc), vehicle: saline); 118 % of control and 120 % of control (dose: 18.0 mg/kg/injection, schedule: Q04DX003 (sc), vehicle: saline). The T/C is 118 % of control and 120 % of control (dose: 18.0 mg/kg/injection, schedule: Q07DX003 (sc), vehicle: saline); 120 % of control and 121 % of control (dose: 20.0 mg/kg/injection, schedule: Q07DX003 (sc), vehicle: saline); 120 % of control and 122 % of control (dose: 23.0 mg/kg/injection, schedule: Q07DX003 (sc), vehicle: saline); 165 % of control and 170 % of control (dose: 25.0 mg/kg/injection, schedule: Q02DX005 (sc), vehicle: saline); 150 % of control and 151 % of control (dose: 25.0 mg/kg/injection, schedule: Q07DX003 (sc), vehicle: saline); 120 % of control (dose: 30.0 mg/kg/injection, schedule: Q04DX003 (sc), vehicle: saline). Also, the T/C (dose: 30.0 mg/kg/injection, schedule: Q07DX003 (sc), vehicle: saline) is 120 % of control and 121 % of control; the T/C (dose: 32.0 mg/kg/injection, schedule: Q07DX003 (sc), vehicle: saline) was 155 % of control and 158 % of control; the T/C (dose: 39.0 mg/kg/injection, schedule: Q07DX003 (sc), vehicle: saline) was 120 % of control and 122 % of control; the T/C (dose: 39.0 mg/kg/injection, schedule: Q09DX003 (sc), vehicle: saline) is 116 % of control and 117 % of control; the T/C (dose: 40.0 mg/kg/injection, schedule: Q04DX003 (sc), vehicle: saline) is 160 % of control and 181 % of control; the T/C (dose: 50.0 mg/kg/injection, schedule: Q01DX001 (sc), vehicle: saline) is 118 % of control and 120 % of control. Besides, the T/C runs as follows: (dose: 62.0 mg/kg/injection, schedule: Q07DX003 (sc), vehicle: saline) 175 % of control and 176 % of control; (dose: 65.0 mg/kg/injection, schedule: Q07DX003 (sc), vehicle: saline) 121 % of control and 122 % of control; (dose: 65.0 mg/kg/injection, schedule: Q09DX003 (sc), vehicle: saline) 122 % of control; (dose: 78.0 mg/kg/injection, schedule: Q07DX003 (sc), vehicle: saline) 180 % of control and 181 % of control; (dose: 80.0 mg/kg/injection, schedule: Q04DX003 (sc), vehicle: saline) 115 % of control and 118 % of control; (dose: 80.0 mg/kg/injection, schedule: Q07DX003 (sc), vehicle: saline) 120 % of control and 123 % of control. Moreover, the T/C by setting is: (dose: 83.3 mg/kg/injection, schedule: Q01DX001 (sc), vehicle: saline) 120 % of control and 121 % of control; (dose: 98.0 mg/kg/injection, schedule: Q07DX003 (sc), vehicle: saline) 118 % of control and 120 % of control; (dose: 108.0 mg/kg/injection, schedule: Q07DX003 (sc), vehicle: saline) 120 % of control and 122 % of control; (dose: 108.0 mg/kg/injection, schedule: Q09DX003 (sc), vehicle: saline) 122 % of control; (dose: 122.0 mg/kg/injection, schedule: Q07DX003 (sc), vehicle: saline) 118 % of control and 120 % of control; (dose: 148.0 mg/kg/injection, schedule: Q01DX001 (sc), vehicle: saline) 110 % of control. Moreover, the T/C by setting is: (dose: 160.0 mg/kg/injection, schedule: Q04DX003 (sc), vehicle: saline) 90 % of control and 93 % of control; (dose: 160.0 mg/kg/injection, schedule: Q07DX003 (sc), vehicle: saline) 110 % of control and 122 % of control; (dose: 180.0 mg/kg/injection, schedule: Q09DX003 (sc), vehicle: saline) 116 % of control and 118 % of control; (dose: 191.0 mg/kg/injection, schedule: Q07DX003 (sc), vehicle: saline) 150 % of control; (dose: 246.0 mg/kg/injection, schedule: Q01DX001 (sc), vehicle: saline) 110 % of control; (dose: 300.0 mg/kg/injection, schedule: Q09DX003 (sc), vehicle: saline) 100 % of control and 101 % of control. For the same compound, the T/C by setting is: (dose: 320.0 mg/kg/injection, schedule: Q07DX003 (sc), vehicle: saline) 90 % of control; (dose: 468.0 mg/kg/injection, schedule: Q07DX003 (sc), vehicle: saline) 120 % of control and 121 % of control; (dose: 731.0 mg/kg/injection, schedule: Q07DX003 (sc), vehicle: saline) 90 % of control and 93 % of control; (dose: 800.0 mg/kg/injection, schedule: Q07DX003 (sc), vehicle: saline) 88 % of control.

With `CCCCC(C)(N)C(=O)O` (centres undefined), the T/C is 95 % of control (dose: 14.0 mg/kg/injection, schedule: Q01DX Z (sc), vehicle: water); 100 % of control (dose: 23.0 mg/kg/injection, schedule: Q01DX Z (sc), vehicle: water); 100 % of control (dose: 39.0 mg/kg/injection, schedule: Q01DX Z (sc), vehicle: water); 100 % of control (dose: 65.0 mg/kg/injection, schedule: Q01DX Z (sc), vehicle: water); 100 % of control (dose: 108.0 mg/kg/injection, schedule: Q01DX Z (sc), vehicle: water); 100 % of control (dose: 180.0 mg/kg/injection, schedule: Q01DX Z (sc), vehicle: water). For the same compound, the T/C (dose: 300.0 mg/kg/injection, schedule: Q01DX Z (sc), vehicle: water) was 100 % of control.

As to `C[C@]12CCC(=O)C=C1CC[C@@H]1[C@@H]2C(=O)C[C@@]2(C)[C@H]1CC[C@]2(O)C(=O)CO`, the T/C (dose: 39.0 mg/kg/injection, schedule: Q01DX Z (sc), vehicle: methylcellulose (MC)) was 100 % of control; the T/C (dose: 65.0 mg/kg/injection, schedule: Q01DX Z (sc), vehicle: methylcellulose (MC)) was 104 % of control; the T/C (dose: 108.0 mg/kg/injection, schedule: Q01DX Z (sc), vehicle: methylcellulose (MC)) is 104 % of control; the T/C (dose: 180.0 mg/kg/injection, schedule: Q01DX Z (sc), vehicle: methylcellulose (MC)) was 100 % of control; the T/C (dose: 300.0 mg/kg/injection, schedule: Q01DX Z (sc), vehicle: methylcellulose (MC)) is 100 % of control.

In the case of `Cc1cc(N)c2cc(NC(=O)CCCCCCCCC(=O)Nc3ccc4nc(C)cc(N)c4c3)ccc2n1`, the T/C was 91 % of control (dose: 65.0 mg/kg/injection, schedule: Q01DX Z (sc), vehicle: saline); 91 % of control (dose: 108.0 mg/kg/injection, schedule: Q01DX Z (sc), vehicle: saline); 91 % of control (dose: 130.0 mg/kg/injection, schedule: Q01DX Z (sc), vehicle: saline); 91 % of control (dose: 180.0 mg/kg/injection, schedule: Q01DX Z (sc), vehicle: saline); 91 % of control (dose: 216.0 mg/kg/injection, schedule: Q01DX Z (sc), vehicle: saline); 91 % of control (dose: 300.0 mg/kg/injection, schedule: Q01DX Z (sc), vehicle: saline). For the same compound, the T/C was 91 % of control (dose: 360.0 mg/kg/injection, schedule: Q01DX Z (sc), vehicle: saline); 95 % of control (dose: 500.0 mg/kg/injection, schedule: Q01DX Z (sc), vehicle: saline); 91 % of control (dose: 600.0 mg/kg/injection, schedule: Q01DX Z (sc), vehicle: saline); 95 % of control (dose: 1000.0 mg/kg/injection, schedule: Q01DX Z (sc), vehicle: saline).

For `CC(=O)NC(CS)C(=O)O` (centres undefined), the T/C reads like this: (dose: 600.0 mg/kg/injection, schedule: Q01DX001 (ip), vehicle: saline) 94 % of control and 97 % of control; (dose: 600.0 mg/kg/injection, schedule: Q01DX015 (ip), vehicle: saline) 94 % of control and 97 % of control; (dose: 600.0 mg/kg/injection, schedule: Q07DX003 (ip), vehicle: saline) 94 % of control and 97 % of control; (dose: 1000.0 mg/kg/injection, schedule: Q01DX001 (ip), vehicle: saline) 94 % of control and 96 % of control; (dose: 1000.0 mg/kg/injection, schedule: Q01DX015 (ip), vehicle: saline) 103 % of control and 105 % of control; (dose: 1000.0 mg/kg/injection, schedule: Q07DX003 (ip), vehicle: saline) 99 % of control and 100 % of control.
